Tests used:
Experiment in all cases: relative viability (nuclei count vs DMSO), 5 days (fraction); higher = more cells survive
[1] = compound: O=C(/C=C/c1ccccc1)NC(NC(=S)Nc1cccc2cccnc12)C(Cl)(Cl)Cl [Salubrinal] + CC(=O)c1c(C)c2cnc(Nc3ccc(N4CCNCC4)cn3)nc2n(C2CCCC2)c1=O [Palbociclib] (partner 0.5 µM)
In short: (§1)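 Values are medians from duplicate plates. Each reflects relative viability, defined as the nuclei count of treated wells over that of vehicle wells. Lung cancer cell lines in 1536-well plates were pin-tool dosed one day after seeding with one drug alone or with a fixed anchor-drug dose plus five library-drug doses (not always all listed) in √10 steps, then fixed, stained and imaged at 4× after 5 days.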

[2] = compound: Cc1ccc2nc(NCCN)c3ncc(C)n3c2c1 + C[C@@H](Oc1cc(-c2cnn(C3CCNCC3)c2)cnc1N)c1c(Cl)ccc(F)c1Cl [Crizotinib] (partner 1 µM)
In short: as §1

[3] = compound: Cc1ccc2nc(NCCN)c3ncc(C)n3c2c1 + C[C@]1(O)C[C@@H](c2nc(-c3ccc4ccc(-c5ccccc5)nc4c3)c3c(N)nccn32)C1 [Linsitinib] (partner 1 µM)
In short: as §1

[4] = compound: O=C(/C=C/c1ccccc1)NC(NC(=S)Nc1cccc2cccnc12)C(Cl)(Cl)Cl [Salubrinal] + Nc1ncn([C@H]2C[C@H](O)[C@@H](CO)O2)c(=O)n1 [Decitabine] (partner 2 µM)
In short: as §1

Cell Line	relative viability ([1]; first compound 0.08 µM)	relative viability ([1]; first compound 0.253 µM)	relative viability ([1]; first compound 0.8 µM)	relative viability ([1]; first compound 2.53 µM)	relative viability ([1]; first compound 8 µM)	relative viability ([2]; first compound 0.04 µM)	relative viability ([2]; first compound 0.1265 µM)	relative viability ([2]; first compound 0.4 µM)	relative viability ([2]; first compound 1.265 µM)	relative viability ([2]; first compound 4 µM)	relative viability ([3]; first compound 0.04 µM)	relative viability ([3]; first compound 0.1265 µM)	relative viability ([3]; first compound 0.4 µM)	relative viability ([3]; first compound 1.265 µM)	relative viability ([3]; first compound 4 µM)	relative viability ([4]; first compound 0.08 µM)	relative viability ([4]; first compound 0.253 µM)	relative viability ([4]; first compound 0.8 µM)	relative viability ([4]; first compound 2.53 µM)	relative viability ([4]; first compound 8 µM)
201T	0.355	0.332	0.413	0.351	0.374	1.07	1.06	1.07	1.09	1.06	1	1.09	1.04	0.98	0.992	0.918	0.815	0.859	0.84	0.83
A549						0.826	0.744	0.753	0.547	0.485	0.791	0.557	0.598	0.423	0.534		0.253	0.245	0.257	0.246
A-427	0.57	0.527	0.562	0.502	0.538	1.01	1.01	0.835	0.966	0.942	0.922	1.01	1.08	1.09	1.19	0.575	0.564	0.57	0.539	0.597
ABC-1	0.692	0.576	0.836	0.547	0.664	1.09	1.04	1.23	0.988	0.68	0.95	0.806	0.812	0.818	0.594	1.42	0.915	1.14	1.01	1.13
BEN	0.453	0.444	0.484	0.457	0.463	0.944	0.59	0.872	0.798	0.842	0.916	0.785	1.03	0.795	0.914	0.711	0.726	0.865	0.741	0.766
CAL-12T	0.459	0.42	0.676	0.436	0.328	0.787	0.716	0.725	0.603	0.344	0.835	0.873	0.853	0.877	0.731					
COR-L23	0.356	0.31	0.312	0.331	0.208	0.737	0.608	0.628	0.572	0.541	0.993	0.773	0.873	0.988	0.816	0.408	0.395	0.451	0.473	0.386
COR-L 105	0.311	0.405	0.364	0.408	0.385	0.797	0.721	0.887	0.704	0.422	1.11	0.964	0.873	1.1	0.845	0.807	0.693	0.655	0.712	0.534
Calu-6						0.803	0.776	0.794	0.77	0.426	0.872	0.895	0.966	0.982	0.983					
ChaGo-K-1	1.02	0.756	0.954	0.938	0.837	1.17	1.03	1.15	0.989	0.922						0.574	0.523	0.56	0.523	0.467
EBC-1						0.219	0.204	0.206	0.207	0.17	1.08	1.13	0.874	0.866	0.793					
EKVX	0.408	0.457	0.791	0.412	0.37	0.921	0.794	1.02	1.05	0.903	1.04	0.972	0.962	0.865	0.805	0.367	0.366	0.482	0.286	0.331
EMC-BAC-2	0.493	0.493	0.541	0.525	0.524	0.761	0.728	0.735	0.733	0.775	0.799	0.806	0.822	0.819	0.831	0.992	0.879	1.01	0.991	1.05
EPLC-272H	0.314	0.295	0.293	0.288	0.312	0.948	0.846	1.06	0.948	0.91	1.44	1.02	1.13	1.32	1.15	0.403	0.373	0.369	0.405	0.362
H3255	0.315	0.344	0.319	0.299	0.332	0.939	0.743	0.846	0.788	0.694	0.955	0.876	0.819	0.915	0.944	0.703	0.649	0.774	0.591	0.558
HARA	0.294	0.281	0.252	0.269	0.236	0.951	0.916	1.02	0.746	0.917	1.01	0.933	0.885	0.791	0.927	0.402	0.498	0.601	0.517	0.605
HCC-15	0.832	0.589	0.844	0.777	0.703	0.791	0.8	0.779	0.742	0.693	0.886	0.833	0.855	0.805	0.905	0.723	0.555	0.773	0.762	0.61
HCC-44	1.03	0.941	0.971	0.998	1	0.851	0.827	0.768	0.828	0.835	0.869	0.632	0.652	0.625	0.69	0.955	0.969	0.935	0.934	0.919
HCC-78	0.462	0.403	0.488	0.464	0.539	0.37	0.327	0.328	0.332	0.334	0.539	0.537	0.496	0.491	0.448	0.735	0.661	0.816	0.606	0.624
HCC-366	0.464		0.44	0.385	0.315	0.642	0.553	0.582	0.508	0.502	0.622	0.612	0.642	0.78	0.49	0.371		0.374	0.392	0.301

Cell Line	relative viability ([1]; first compound 0.08 µM)	relative viability ([1]; first compound 0.253 µM)	relative viability ([1]; first compound 0.8 µM)	relative viability ([1]; first compound 2.53 µM)	relative viability ([1]; first compound 8 µM)	relative viability ([2]; first compound 0.04 µM)	relative viability ([2]; first compound 0.1265 µM)	relative viability ([2]; first compound 0.4 µM)	relative viability ([2]; first compound 1.265 µM)	relative viability ([2]; first compound 4 µM)	relative viability ([3]; first compound 0.04 µM)	relative viability ([3]; first compound 0.1265 µM)	relative viability ([3]; first compound 0.4 µM)	relative viability ([3]; first compound 1.265 µM)	relative viability ([3]; first compound 4 µM)	relative viability ([4]; first compound 0.08 µM)	relative viability ([4]; first compound 0.253 µM)	relative viability ([4]; first compound 0.8 µM)	relative viability ([4]; first compound 2.53 µM)	relative viability ([4]; first compound 8 µM)
HCC-827	0.49	0.441	0.514	0.475	0.48	0.792	0.903	0.932	0.866	0.927	0.932	0.936	0.91	0.946	0.938	0.303	0.335	0.361	0.345	0.341
HOP-62	0.359	0.399	0.53	0.457	0.481	1.01	0.895	0.811	0.812	0.835	1.11	0.912	1.11	0.922	0.89	0.192	0.206	0.196	0.187	0.224
IA-LM						1.05	0.945	0.631	0.787	0.631	0.825	0.559	0.542	0.658	0.495					
LC-2-ad	0.499	0.403	0.586	0.478	0.403	0.467	0.448	0.44	0.406	0.476	0.851	0.871	0.891	0.864	0.806	0.751	0.63	0.792	0.771	0.813
LCLC-97TM1	0.236	0.224	0.221	0.227	0.265	0.379	0.394	0.255	0.287	0.293	0.204	0.166	0.185	0.19	0.201	0.248	0.223	0.234	0.21	0.257
LCLC-103H	0.469	0.491	0.469	0.453	0.467	1.07	1.03	1.05	1.07	1.06	1.06	1.06	1.06	1.14	1.16	0.772	0.696	0.718	0.782	0.608
LK-2	0.708	0.781	0.683	0.597	0.788	0.228	0.258	0.214	0.222	0.238	0.561	0.439	0.531	0.194	0.37	0.269	0.306	0.399	0.385	0.266
NCI-H522	1.1	1.21	0.956	0.94	1.13											0.711	1.19	0.617	0.705	0.729
NCI-H596						1.06	0.929	1.03	0.961	0.851	1.26	1.02	0.869	1.03	1.03	1.1	1.02	1.18	0.969	0.863
NCI-H1299						0.9	0.937	0.951	0.917	0.659	1.01	0.925	0.962	0.979	0.924					
NCI-H1395	0.638	0.648	0.591	0.62	0.587						1	0.955	1.02	1.07	0.955	0.792	0.686	0.707	0.67	0.692
NCI-H1563						0.865	0.835	0.906	0.918	0.88	1.31	1.02	1.1	1.39	1.21					
NCI-H1648	0.255	0.258	0.252	0.22	0.236											0.615	0.483	0.632	0.493	0.366
NCI-H1650	0.314	0.297	0.334	0.366	0.375	0.965	0.969	0.995	0.97	0.571						0.522	0.453	0.417	0.476	0.455
NCI-H1703						0.89	0.679	0.623	0.709	0.563	1.43	0.74	0.72	1.23	0.715					
NCI-H1793	0.366	0.37	0.323	0.284	0.287						1.04	0.951	0.789	0.744	0.845	0.625	0.494	0.521	0.467	0.608
NCI-H2170	0.436	0.326	0.447	0.395	0.372	1.17	1.14	1.1	1.21	1.06						0.483	0.452	0.496	0.472	0.461
NCI-H2228	0.613		1.04	0.752	0.567	0.51	0.436	0.53	0.346	0.405	0.642	0.443	0.587	0.751	0.44					
NCI-H2342	0.465	0.516	0.552	0.49	0.531											0.797	0.82	0.657	0.769	0.595
SW 900	0.692	0.531	0.493	0.468	0.567											0.483	0.466	0.512	0.419	0.519

— the supplement of paper PMC10307832
